Results: US12458643B2, “Antidepressant/anxiolytic drug in which PAC1 receptor antagonist is used” (KAGOSHIMA UNIVERSITY, priority 2020, dated 2025)

What was measured:
[1] = disclosed in Patent Literature 2 (WO 2019/065794); cited from earlier work
[2] = test system: chronic social defeat stress mice; assay: Chronic social defeat stress, social preference or avoidance test (SPAT); format: in vivo, mouse; conditions: for effect on chronic social defeat stress-induced social behavioral abnormality (SPAT): 30 mg/kg i.p. once daily for 7 consecutive days, SPAT 30 min after final administration (Day 18); for sustained effect on social behavioral abnormality (social interaction ratio) / effect on social behavioral abnormality (social interaction ratio): Example 18; for sustained effect on social behavioral abnormality (social interaction ratio): 7, 14, 28 days after single i.p. dose (PA-915 30 mg/kg, ketamine 20 mg/kg), fluoxetine 20 mg/kg i.p. 14-day consecutive administration; for effect on social behavioral abnormality (social interaction ratio): single i.p. dose (PA-915 30 mg/kg, ketamine 20 mg/kg, fluoxetine 20 mg/kg), 60 minutes later (Day 12)
Source text: When male C57BL/6N mice (8 to 12 weeks old) are allowed to coexist with ICR mice having a large physical size, the male C57BL/6N mice run about in the beginning in order to avoid attack by the ICR mice, but eventually make a posture to immediately raise their forelegs and accept defeats (obedience) by repeated load for 5 days to 10 days (chronic social defeat stress (SDS) load).
The social preference or avoidance test (SPAT) is a test that has received attention in recent years as a highly extrapolatable antidepressant drug screening system. SPAT evaluates the degree of interest in others (sociality). A box (which has a wired contact surface) is disposed in an open field. A time of contact with a target (time spent in an interaction zone) and a time spent in an avoidance zone are measured without the target (ICR mice) placed in the box in the first run and with the target (ICR mice) placed in the box in the second run. Time spent in the second run/Time spent in the first run is calculated (social interaction ratio). The social interaction ratio is decreased in chronic social defeat stress mice. Stress susceptibility differs among individuals, and susceptible individuals (social interaction ratio <1) and resilient individuals (social interaction ratio 1) are found.
(§1) Chronic social defeat stress was applied at 10 min/day for 10 days (Days 1 to 10) to male C57BL/6N mice (8 to 12 weeks old) each reared in isolation for 10 days or longer. On Day 11, the social preference or avoidance test (SPAT) was conducted, and susceptible mice were selected. A vehicle (10% DMSO solution; dissolved in saline; n=12) or PA-8 (30 mg/kg; n=9) was intraperitoneally administered once daily (0.1 mL/10 g) for 7 consecutive days from day 12. SPAT was conducted for 150 seconds 30 minutes after the final administration on the 7th day (Day 18). Mice reared for 10 days in a home cage without chronic social defeat stress load were used as a control (n=12). The results are shown in FIG. 15 (A: social interaction ratio, B: time spent in the interaction zone, C: time spent in the avoidance zone). The data was indicated by mean±standard error. *P<0.05 (One-way ANOVA followed by Tukey-Kramer test).
as §1, with “or PA-9” for “or PA-8”, “FIG. 17” for “FIG. 15”, “zone). […]” for “zone).”
Chronic social defeat stress was applied at 10 min/day for 10 days (Days 1 to 10) to male C57BL/6N mice (8 to 12 weeks old) each reared in isolation for 10 days or longer. On Day 11, the social preference or avoidance test (SPAT) was conducted, and susceptible mice were selected. On the next day (Day 12), a vehicle (10% DMSO solution; dissolved in saline; n=17) or PA-915 (30 mg/kg; n=17) was intraperitoneally administered (0.1 mL/10 g) to the mice. SPAT was conducted for 150 seconds 60 minutes later. Mice reared for 10 days in a home cage without chronic social defeat stress load were used as a control (n=22). The results are shown in FIG. 19 (A: social interaction ratio, B: time spent in the interaction zone, C: time spent in the avoidance zone). […] The data was indicated by mean±standard error. **P<0.01; *P<0.05 (One-way ANOVA followed by Tukey-Kramer test). […]

[3] = test system: chronically corticosterone-administered model mice; assay: Repeated corticosterone administration, forced swim test; format: in vivo, mouse; conditions: male mice, corticosterone 20 mg/kg s.c. 21 days; single i.p. PA-915 30 mg/kg, ketamine 20 mg/kg, fluoxetine 20 mg/kg; 24 hours later
Protocol: Chronically corticosterone-administered model mice are model mice that mimic high plasma corticosterone levels associated with the hyperactivation of the hypothalamic-pituitary-adrenal system under pathological stress, and are generally used as depression model mice.
A vehicle (0.5% carboxymethylcellulose solution) or corticosterone (20 mg/kg) was subcutaneously administered (0.1 mL/10 g) to male C57BL/6J mice (6 weeks old) for 21 days. A vehicle (10% DMSO solution; dissolved in saline; n=11), PA-915 (30 mg/kg; n=13), ketamine (20 mg/kg; n=13) or fluoxetine (20 mg/kg; n=15) was intraperitoneally administered thereto (0.1 mL/10 g) 3 hours after administration on the 21st day. The mice were forced to swim for 6 minutes 24 hours later, and an immobility time was measured. Mice given the vehicle by repeated administration without repeated corticosterone administration were used as a control (n=11). The data was indicated by mean±standard error. **P<0.01 (One-way ANOVA followed by Tukey-Kramer test).
A vehicle (0.5% carboxymethylcellulose solution) or corticosterone (20 mg/kg) was subcutaneously administered (0.1 mL/10 g) to female C57BL/6J mice (9 weeks old) for 21 days. […] The mice were forced to swim for 6 minutes 24 hours later, and an immobility time was measured. […]

Row | Structure (SMILES) | analgesic action [1] | effect on chronic social defeat stress-induced social behavioral abnormality (SPAT) [2] | effect on depressive-like behavior (forced swim test, immobility time) [3] | sustained effect on social behavioral abnormality (social interaction ratio) [2] | effect on social behavioral abnormality (social interaction ratio) [2]
1 | C=CCOc1ccc(C2CC(=O)Nc3nc(N)[nH]c(=O)c32)cc1OC (stereo not shown) [PA-8] | analgesic action | improving effect |  |  | 
2 | O=C(NCCc1c[nH]cn1)C1CC(=O)N(c2n[nH]c3ccccc23)C1 (stereo not shown) [PA-9] | analgesic action | tended to improve social behavioral abnormality |  |  | 
3 | CNCCC(Oc1ccc(C(F)(F)F)cc1)c1ccccc1 (stereo not shown) [fluoxetine] |  |  | exhibited no improving effect | neither the single-dose administration nor 14-day consecutive administration of fluoxetine improved social behavioral abnormality | neither the single-dose administration nor 14-day consecutive administration of fluoxetine improved social behavioral abnormality
4 | CNC1(c2ccccc2Cl)CCCCC1=O (stereo not shown) [ketamine] |  |  | improved depressive-like behavior | maintained its effectiveness 7, 14, and 28 days later | improved social behavioral abnormality
